# From patent US20230255935A1, “ANTI-VIRAL COMPOUNDS AND METHODS FOR SCREENING SAME AND TREATING VIRAL INFECTIONS” (priority 2020, published 2023)
# Biological target: full-length MERS-CoV N protein (Middle East respiratory syndrome-related coronavirus, UniProt K9N4V7)
compound,measurement,value
"CN(C)Cc1c[nH]c2ccc(OCc3ccccc3)cc12 [PSX-01, 5-benzyloxygramine]",radius of gyration (Rg) of N protein,65
